In patent US20230219946A1, “PYRIMIDIN-4(3H)-ONE HETEROCYCLIC COMPOUND, PREPARATION METHOD THEREOF, AND PHARMACEUTICAL USE THEREOF” (Beijing Innocare Pharma Tech Co., Ltd., priority 2020, published 2023):
Structures can show the parent of a compound that is named as a salt.

What was measured:
[1] = system: human non-small cell lung cancer cell line NCI-H358; experiment: NCI-H358 cell proliferation inhibition (luminescent cell viability assay, CTG); assay type: cell-based; conditions: 120 h, NCI-H358 cells, 5 days, CellTiter-Glo
Protocol: Determination of NCI-H358 cell proliferation inhibition
The effect of the compound of the present invention on proliferation of human non-small cell lung cancer cell line NCI-H358 is evaluated by luminescent cell viability assay.
(§1) The experimental method is outlined as follows:
The compound was dissolved in DMSO (Sigma, Cat. No. D5879) and diluted to 5 mM. The resulting solution was serially diluted 4-fold with DMSO to a minimum concentration of […], and each concentration point was diluted 50-fold with RPMI 1640 Medium (Thermo Fisher Scientific, Cat. No. 11995073). When the IC50 value of the compound was low, the initial concentration of the compound was further reduced.
NCI-H358 cells (ATCC, Cat. No. CRL-5807) were cultured in RPMI 1640 Complete Medium [RPMI 1640 Medium was supplemented with 10% FBS (GBICO, Cat. No. 10099-141) and 100 units/mL Penicillin-Streptomycin (Thermo Fisher Scientific, Cat. No. 15140122)]. The cells (15,000 cells/mL) were seeded in 90 μL of Complete Medium on a 96-well plate. After culturing overnight, 10 μL of compound solution was added to each well and cultured at 37° C. in a 5% CO2 incubator for 5 days. According to the instruction from the CellTilter-Glo (CTG) kit (Promega, Cat. No. G7572), the cell culture plate was removed from incubator and equilibrated to room temperature. The cells were lysed fully with 50 μL of CTG reagent and placed at room temperature for 10 min. A luminescence signal was read by the microplate reader (EnVision, Perkin Elmer). […] An inhibition curve of the compound was plotted by XLfit software and the inhibitory IC50 was calculated.

[2] = molecular target: T1, Recombinant human SHP2 full-length protein (Homo sapiens, UniProt Q06124); experiment: SHP2 activity inhibition measurement (fluorescence detection, surrogate substrate DiFMUP); assay type: biochemical; conditions: recombinant human SHP2 full-length protein activated with diphosphopeptide
T1 construct: Recombinant human SHP2 full-length protein
T1 sequence (Q06124 1-593): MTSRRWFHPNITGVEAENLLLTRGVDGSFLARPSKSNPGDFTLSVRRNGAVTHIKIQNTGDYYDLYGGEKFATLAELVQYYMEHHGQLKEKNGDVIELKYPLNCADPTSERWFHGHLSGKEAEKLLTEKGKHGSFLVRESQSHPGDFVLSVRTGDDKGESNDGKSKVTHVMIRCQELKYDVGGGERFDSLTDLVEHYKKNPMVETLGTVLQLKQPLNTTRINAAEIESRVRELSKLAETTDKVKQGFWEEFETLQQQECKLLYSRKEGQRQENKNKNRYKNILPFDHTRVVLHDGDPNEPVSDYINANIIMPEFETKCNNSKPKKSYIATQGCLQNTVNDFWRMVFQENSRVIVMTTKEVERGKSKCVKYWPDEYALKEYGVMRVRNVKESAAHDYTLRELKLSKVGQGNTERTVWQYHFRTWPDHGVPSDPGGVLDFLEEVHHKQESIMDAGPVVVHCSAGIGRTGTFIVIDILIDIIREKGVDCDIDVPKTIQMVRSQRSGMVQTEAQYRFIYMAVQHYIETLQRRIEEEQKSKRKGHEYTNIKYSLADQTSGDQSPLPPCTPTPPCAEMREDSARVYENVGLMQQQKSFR
Protocol: SHP2 activity inhibition measurement
The effect of the compound of the present invention on SHP2 activity is evaluated by rapid fluorescence detection method using the surrogate substrate DiFMUP.
as §1
Recombinant human SHP2 full-length protein was expressed and purified by the protein purification and identification platform of Tsinghua University; diphosphopeptide (H2N-LN(pY)IDLDLV-(dPEG8)LST(pY)ASINFQK-amide) was synthesized by Nanjing GenScript Biotechnology Co., Ltd.; surrogate substrate DiFMUP was purchased from Thermo Fisher Scientific (Cat. No. D6567); reaction buffer contained the following components: 60 mM HEPES (pH 7.2), 75 mM NaCl, 75 mM KCl, 1 mM EDTA, 0.05% TWEEN 20, and 5 mM DTT.
The compound was dissolved in DMSO (Sigma, Cat. No. D5879) and diluted to 100 μM. The resulting solution was serially diluted 4-fold with DMSO to a minimum concentration of 6.1 nM, and each concentration point was diluted 25-fold with the reaction buffer.
10 μL of compound solution and 10 μL of 0.25 nM SHP2 protein solution were added to a 384-well microplate (Corning, Cat. No. 3575), mixed well, and incubated at room temperature for 30 min. 10 μL of 0.5 μM diphosphopeptide (dissolved in the reaction buffer) was added, mixed well, and incubated at room temperature for 30 to 60 min. Subsequently, 10 μL of 60 μM DiFMUP solution (dissolved in the reaction buffer) was added, mixed well, and let stand at room temperature. After 30 min, fluorescence signals were measured at 340 nm (excitation wavelength)/450 nm (emission wavelength) using a microplate reader (EnSpire, Perkin Elmer). The fluorescence intensity value was positively correlated with the degree of dephosphorylation of the substrate, thereby reflecting the catalytic activity of SHP2. […] An inhibition curve of the compound was plotted by XLfit software and the inhibitory IC50 was calculated.

Cn1c(N2CCC3(CCC[C@H]3N)CC2)ncc(Sc2cccn3nccc23)c1=O [Compound 4, (R)-2-(1-amino-8-azaspiro[4.5]decan-8-yl)-3-methyl-5-(pyrazolo[1,5-a]pyridin-4-ylthio)pyrimidin-4(3H)-one formate]
IC50 [1]: 2360 nM
IC50 [2]: 126 nM

C[C@@H]1OCC2(CCN(c3ncc(Sc4ccn5nccc5c4Cl)c(=O)n3C)CC2)[C@@H]1N [Compound 12, 2-((3S,4S)-4-amino-3-methyl-2-oxa-8-azaspiro[4.5]decan-8-yl)-5-((4-chloropyrazolo[1,5-a]pyridin-5-yl)thio)-3-methylpyrimidin-4(3H)-one formate]
IC50 [1]: 264 nM
IC50 [2]: 3.1 nM

C[C@@H]1OCC2(CCN(c3ncc(Sc4ccnc5c4ccn5C)c(=O)n3C)CC2)[C@@H]1N [Compound 17, 2-((3S,4S)-4-amino-3-methyl-2-oxa-8-azaspiro[4.5]decan-8-yl)-3-methyl-5-((1-methyl-1H-pyrrolo[2,3-b]pyridin-4-yl)thio)pyrimidin-4(3H)-one formate]
IC50 [1]: 540 nM
IC50 [2]: 14 nM

Cn1c(N2CCC3(CCC[C@H]3N)CC2)ncc(Sc2ccn3nccc3c2)c1=O [Compound 5, (R)-2-(1-amino-8-azaspiro[4.5]decan-8-yl)-3-methyl-5-(pyrazolo[1,5-a]pyridin-5-ylthio)pyrimidin-4(3H)-one hydrochloride]
IC50 [2]: 801 nM

Cn1c(N2CCC3(CCC[C@H]3N)CC2)nc(N)c(Sc2cccc3[nH]ncc23)c1=O [Compound 13, (R)-5-((1H-indazole-4-yl)thio)-6-amino-2-(1-amino-8-azaspiro[4.5]decan-8-yl)-3-m ethylpyrimidin-4(3H)-one formate]
IC50 [2]: 8.7 nM

Cn1c(N2CCC3(CCC[C@H]3N)CC2)ncc(Sc2ccc3[nH]ncc3c2)c1=O [Compound 6, (R)-5-((1H-indazole-5-yl)thio)-2-(1-amino-8-azaspiro[4.5]decan-8-yl)-3-methylpyrimidin-4(3H)-one hydrochloride]
IC50 [2]: 877 nM

C[C@@H]1OCC2(CCN(c3ncc(Sc4ccnc5[nH]ccc45)c(=O)n3C)CC2)[C@@H]1N [Compound 18, 5-((1H-pyrrolo[2,3-b]pyridin-4-yl)thio)-2-((3S,4S)-4-amino-3-methyl-2-oxa-8-azaspiro[4.5]decan-8-yl)-3-methylpyrimidin-4(3H)-one formate]
IC50 [1]: 335 nM
IC50 [2]: 5.5 nM

Cn1c(N2CCC3(CCC[C@H]3N)CC2)ncc(Sc2ccnc3c2ccn3C)c1=O [Compound 2, (R)-2-(1-amino-8-azaspiro[4.5]decan-8-yl)-3-methyl-5-((1-methyl-1H-pyrrolo[2,3-b]pyridin-4-yl)thio)pyrimidin-4(3H)-one formate]
IC50 [1]: 383 nM
IC50 [2]: 20 nM

Cn1nc2ccc(Sc3cnc(N4CCC5(CCC[C@H]5N)CC4)n(C)c3=O)c(Cl)c2c1C#N [Compound 9, (R)-5-((2-(1-amino-8-azaspiro[4.5]decan-8-yl)-1-methyl-6-oxo-1,6-dihydropyrimidin-5-yl)thio)-4-chloro-2-methyl-2H-indazole-3-carbonitrile formate]
IC50 [1]: 1340 nM
IC50 [2]: 8.8 nM

C[C@@H]1OCC2(CCN(c3ncc(Sc4ccc5nn(C)cc5c4Cl)c(=O)n3C)CC2)[C@@H]1N [Compound 11, 2-((3S,4S)-4-amino-3-methyl-2-oxa-8-azaspiro[4.5]decan-8-yl)-5-((4-chloro-2-methyl-2H-indazole-5-yl)thio)-3-methylpyrimidin-4(3H)-one formate]
IC50 [1]: 165 nM
IC50 [2]: 4 nM

Cn1c(N2CCC3(CCC[C@H]3N)CC2)ncc(Sc2ccnc3[nH]ccc23)c1=O [Compound 1, (R)-5-((1H-pyrrolo[2,3-b]pyridin-4-yl)thio)-2-(1-amino-8-azaspiro[4.5]decan-8-yl)-3-methylpyrimidin-4(3H)-one hydrochloride]
IC50 [1]: 310 nM
IC50 [2]: 23 nM

Cn1cc2c(Cl)c(Sc3cnc(N4CCC(C)(CN)CC4)n(C)c3=O)ccc2n1 [Compound 16, 2-(4-(Aminomethyl)-4-methylpiperidin-1-yl)-5-((4-chloro-2-methyl-2H-indazole-5-yl)thio)-3-methylpyrimidin-4(3H)-one formate]
IC50 [2]: 56 nM

Cn1c(N2CCC3(CCC[C@H]3N)CC2)ncc(Sc2cccc3[nH]ncc23)c1=O [Compound 3, (R)-5-((1H-indazole-4-yl)thio)-2-(1-amino-8-azaspiro[4.5]decan-8-yl)-3-methylpyrimidin-4(3H)-one hydrochloride]
IC50 [1]: 434 nM
IC50 [2]: 20 nM

C[C@@H]1OCC2(CCN(c3nc(N)c(Sc4ccn5nccc5c4Cl)c(=O)n3C)CC2)[C@@H]1N [Compound 15, 6-Amino-2-((3S,4S)-4-amino-3-methyl-2-oxa-8-azaspiro[4.5]decan-8-yl)-5-((4-chloropyrazolo[1,5-a]pyridine-5-yl)thio)-3-methylpyrimidin-4(3H)-one formate]
IC50 [1]: 342 nM
IC50 [2]: 2.7 nM

[2H]C([2H])([2H])n1c(N2CCC3(CC2)CO[C@@H](C)[C@H]3N)ncc(Sc2ccc3nn(C)cc3c2Cl)c1=O [Compound 19, 2-((3S,4S)-4-amino-3-methyl-2-oxa-8-azaspiro[4.5]decan-8-yl)-5-((4-chloro-2-methyl-2H-indazole-5-yl)thio)-3-(methyl-d3)pyrimidin-4(3H)-one]
IC50 [1]: 222 nM
IC50 [2]: 11 nM

Cn1cc2c(Cl)c(Sc3cnc(N4CCC5(CC4)COC[C@H]5N)n(C)c3=O)ccc2n1 [Compound 10, (S)-2-(4-amino-2-oxa-8-azaspiro[4.5]decan-8-yl)-5-((4-chloro-2-methyl-2H-indazole-5-yl)thio)-3-methylpyrimidin-4(3H)-one]
IC50 [1]: 1760 nM
IC50 [2]: 36 nM

Cn1c(N2CCC3(CCC[C@H]3N)CC2)ncc(Sc2ccn3nccc3c2Cl)c1=O [Compound 8, (R)-2-(1-amino-8-azaspiro[4.5]decan-8-yl)-5-((4-chloropyrazolo[1,5-a]pyridin-5-yl)thio)-3-methylpyrimidin-4(3H)-one formate]
IC50 [1]: 309 nM
IC50 [2]: 8.6 nM

C[C@@H]1OCC2(CCN(c3nc(N)c(Sc4ccc5nn(C)cc5c4Cl)c(=O)n3C)CC2)[C@@H]1N [Compound 14, 6-Amino-2-((3S,4S)-4-amino-3-methyl-2-oxa-8-azaspiro[4.5]decan-8-yl)-5-((4-chloro-2-methyl-2H-indazole-5-yl)thio)-3-methylpyrimidin-4(3H)-one formate]
IC50 [1]: 108 nM
IC50 [2]: 2.5 nM
